Results: PubChem BioAssay (NCI)
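Assay format: 96-well plates, 48-hour exposure. The concentration for full growth arrest is given as TGI.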

Key:
Assay in all cases: NCI-60 cell line screen, 48 h
IGROV1 ovarian = system: IGROV1 ovarian
OVCAR-4 ovarian = system: OVCAR-4 ovarian
HT29 colon = system: HT29 colon
HL-60(TB) leukemia = system: HL-60(TB) leukemia
K-562 leukemia = system: K-562 leukemia
UACC-257 melanoma = system: UACC-257 melanoma
786-0 renal = system: 786-0 renal
HOP-62 NSCLC = system: HOP-62 NSCLC
RPMI-8226 leukemia = system: RPMI-8226 leukemia
OVCAR-8 ovarian = system: OVCAR-8 ovarian
SW-620 colon = system: SW-620 colon
M14 melanoma = system: M14 melanoma
SK-MEL-5 melanoma = system: SK-MEL-5 melanoma
HCC-2998 colon = system: HCC-2998 colon
PC-3 prostate = system: PC-3 prostate
A549 NSCLC = system: A549 NSCLC
ACHN renal = system: ACHN renal
COLO 205 colon = system: COLO 205 colon
MDA-MB-231 breast = system: MDA-MB-231 breast
DU-145 prostate = system: DU-145 prostate

| Compound | TGI (IGROV1 ovarian) [µM] | TGI (OVCAR-4 ovarian) [µM] | TGI (HT29 colon) [µM] | TGI (HL-60(TB) leukemia) [µM] | TGI (K-562 leukemia) [µM] | TGI (UACC-257 melanoma) [µM] | TGI (786-0 renal) [µM] | TGI (HOP-62 NSCLC) [µM] | TGI (RPMI-8226 leukemia) [µM] | TGI (OVCAR-8 ovarian) [µM] | TGI (SW-620 colon) [µM] | TGI (M14 melanoma) [µM] | TGI (SK-MEL-5 melanoma) [µM] | TGI (HCC-2998 colon) [µM] | TGI (PC-3 prostate) [µM] | TGI (A549 NSCLC) [µM] | TGI (ACHN renal) [µM] | TGI (COLO 205 colon) [µM] | TGI (MDA-MB-231 breast) [µM] | TGI (DU-145 prostate) [µM] |
| --- | --- | --- | --- | --- | --- | --- | --- | --- | --- | --- | --- | --- | --- | --- | --- | --- | --- | --- | --- | --- |
| COc1ccc(/C=c2/sc3n(c2=O)C(c2ccccc2)C2(O)CCCCC2N=3)cc1 (centres undefined) | > 12.5 | > 12.5 | > 12.5 | > 12.5 | > 12.5 | > 12.5 | > 12.5 | > 12.5 | > 12.5 | > 12.5 | > 12.5 | > 12.5 | > 12.5 | > 12.5 | > 12.5 | > 12.5 | > 12.5 |  |  |  |
| C[n+]1c2ccccc2c(NCC(=O)O)c2ccccc21 | > 100 | > 100 | > 100 | > 100 | > 100 | > 100 | > 100 | > 100 | > 100 | > 100 | > 100 | > 100 | > 100 | > 100 |  | > 100 | > 100 | > 100 |  |  |
| CC1=CC(=O)[C@@H](O)[C@]2(C)[C@H]3[C@@]4(O)OC[C@]35[C@H]([C@@H](C)[C@H]4O)[C@@H](OC(=O)C(C)(C)CO)C(=O)O[C@@H]5C[C@@H]12 |  | 1.9 | 10.4 | > 100 | > 100 |  | 4.83 | 1.63 | 0.0968 | 2.52 | > 27.6 | 0.446 | 0.187 | 1 | 4.84 | 41.5 | 1.33 | 7 |  |  |
| Cc1cc(=O)[nH]c(NNC(C#N)c2cccc(O)c2)n1 (centres undefined) | > 100 | > 100 | > 100 | > 100 | > 100 | > 100 | > 100 | > 100 | > 100 | > 100 | > 100 | > 100 | > 100 |  |  | > 100 | > 100 | > 100 |  |  |
| O=[N+]([O-])C(=C(Cl)Cl)C(Cl)=C(Cl)Cl | 1.15 | 0.482 | 0.852 | 0.0573 | 0.118 | 0.74 | 0.648 | 25.3 |  | 5.14 | 0.157 | 0.0871 | 1.83 | 5.43 | 4.66 | 19.6 | 2.05 | 0.254 | 2.11 | 24 |
| COC1(c2ccc(Cl)cc2)SC=C(C)n2c1noc2=O (centres undefined) | > 100 | > 100 | > 100 | > 100 | > 100 | > 100 | > 100 |  | > 100 |  | > 100 | > 100 | > 100 | > 100 | > 100 | > 100 | > 100 | > 100 |  | > 100 |
| Cc1ccc2c(c1)[nH]c(=S)n2C=C(C(N)=O)C(N)=O | > 100 | > 100 | > 100 | > 100 |  | > 100 | > 100 | > 100 |  | > 100 | > 100 | > 100 | > 100 | > 100 |  | > 100 | > 100 | > 100 | > 100 | > 100 |
| O=[N+]([O-])c1cccc2nc3ccccc3c(NCCCCNc3c4ccccc4nc4cccc([N+](=O)[O-])c34)c12 | 2.2 | 0.508 | 0.0366 | 0.0246 |  | 0.682 | 0.0943 | 0.372 |  | 1.09 | 0.174 | 0.199 | 0.165 | 0.164 | > 100 | > 33.2 | 0.0913 | 0.173 |  | 0.133 |
| C=CC[C@H]1O[Si](C(C)(C)C)(C(C)(C)C)[C@H](C)[C@H]1C | > 100 | > 100 | > 100 | > 100 | > 100 | > 100 | > 100 | > 100 |  | > 100 | > 100 | > 100 | > 100 | > 100 | > 100 | > 100 | > 100 | > 100 | > 100 |  |
| CC(=O)Nc1oc(C)c(C)c1S(=O)(=O)c1ccc(Cl)cc1 | > 100 | > 100 | > 100 | > 100 | > 100 | > 100 | > 100 |  | > 100 | > 100 | > 100 | > 100 | 76.6 | > 100 | 83.4 | > 100 | > 100 | > 100 |  | > 100 |
| C=C(C)[C@@H]1CCC2=C[C@@H](OC2=O)[C@@H](C(=C)C)C2=CC(C(=O)O)=C(C1)O2 | > 100 | > 100 | > 100 | > 100 | > 100 | > 100 | > 100 | > 100 | > 100 | > 100 | > 100 | > 100 | > 100 | > 100 |  | > 100 | > 100 | > 100 | > 100 | > 100 |
| Cn1c(=O)c2c3ccccc3n(C)c2n(C)c1=O | > 100 | > 100 | > 100 | > 100 | > 100 | > 100 | > 100 | > 100 | > 100 | > 100 | > 100 | > 100 | > 100 | > 100 |  | > 100 | > 100 | > 100 | > 100 | > 100 |
| COc1cccc(-c2nc3ccccc3c(=O)[nH]2)c1 | 58.8 |  | 55.5 | > 100 | > 100 | 56.2 | 28.1 | 37.1 |  | > 100 | > 100 | > 100 | 65.8 | 54.3 | 41.7 | 49.4 | 37.4 | > 100 | 58.9 | > 100 |
| Cc1sc(Nc2ccc(Nc3nc(-c4ccccc4)c(C)s3)cc2)nc1-c1ccccc1 | > 100 | > 100 | > 100 |  | > 100 | > 100 | > 100 | > 100 |  | > 100 | > 100 | > 100 | 66.3 | 50.5 | 48.4 | > 100 | > 100 | 42.1 | > 100 | > 100 |
| S=C1NCCN1 | > 100 | > 100 | > 100 | > 100 | > 100 | > 100 | > 100 | > 100 | > 100 | > 100 | > 100 | > 100 | > 100 |  |  | > 100 | > 100 | > 100 |  |  |
| COC(=O)NC(Nc1ccccn1)(C(F)(F)F)C(F)(F)F | > 100 |  | > 100 | > 100 | > 100 | > 100 | > 100 | > 100 | > 100 | > 100 | > 100 | > 100 | > 100 | > 100 |  | > 100 | > 100 |  | > 100 | > 100 |
| COc1c2c(cc3c1C(=O)c1c(O)cccc1C3=O)CC(O)CC2 (centres undefined) | > 100 | > 100 | > 100 | > 100 | > 100 | > 100 | > 100 | 46 |  | > 100 | > 100 | > 100 | > 100 | > 100 | > 100 | > 100 | > 100 | > 100 | 51.9 | > 100 |
| CCOC(=O)c1c(SC(=O)c2ccc(C(C)(C)C)cc2)n(-c2ccccc2)c(=S)n(-c2ccccc2)c1=O | > 100 | > 100 | > 100 | > 100 | > 100 | > 100 | > 100 | > 100 |  | > 100 | > 100 | > 100 |  | > 100 | > 100 | > 100 | > 100 | > 100 | > 100 | > 100 |
| N=C(N)c1ccc(/C=C/c2ccc(C(=N)N)cc2)cc1 | > 100 | > 100 | > 100 |  | > 100 | > 100 | > 100 | > 100 |  | > 100 | > 100 | > 100 | > 100 | > 100 | > 100 | > 100 | > 100 |  | > 100 | > 100 |
| COc1cc2c(c(OC)c1O)-c1ccc(SC)c(=O)cc1C(NC(C)=O)CC2 (centres undefined) | > 100 | > 100 | > 100 |  | > 100 | > 100 | > 100 | > 100 | > 100 | > 100 | > 100 | > 100 | 0.0361 | > 100 |  | > 100 | > 100 | 0.0209 |  |  |
| Cc1c2n(c(=O)[nH]c1=O)C1OC(CO)C(O2)C1N=[N+]=[N-] (centres undefined) | > 100 | > 100 | > 100 | > 100 | > 100 | > 100 | > 100 | > 100 | > 100 | > 100 | > 100 |  | > 100 |  |  | > 100 | > 100 | > 100 |  |  |
